Results: the supplement of paper PMC12533247

Assays:
[1] = system: primary dermal fibroblasts; assay: % change in live cells vs DMSO control; higher = less cytotoxic; details: time (h post treatment): 48
Description: (§1)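 Cytotoxicity in uninfected 2D primary donor keratinocytes (20 h post treatment) and fibroblasts (48 h post treatment), measured with NucSpot live/dead dyes on IncuCyte. Live cells are normalised to the 0.2% DMSO control and shown as % change. Three biological replicates for each of donors 3, 4 and 5.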

primary keratinocytes = assay: as above; details: time (h post treatment): 20
Description: as §1

[2] = system: HSV-1 K26-GFP infected 3D skin equivalent; assay: % change of tdTomato fibroblast signal relative to infected DMSO control; higher = higher signal (negative = inhibition / toxicity); details: time (h post infection): 48
Description: (§2)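 Triplicate dose-response (0.04 to 10 uM) of 11 top compounds in 3D bioprinted skin equivalents (submerged and ALI models) infected with GFP-HSV-1 K26 at MOI 0.1 and fixed at 48 hpi. GFP (virus) and tdTomato (fibroblast viability) signals are normalised to per-plate controls.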

[3] = system: HSV-1 K26-GFP infected 3D skin equivalent; assay: % activity on HSV-1 GFP signal (0 = infected DMSO control, -100 = uninfected control); higher = higher signal (negative = inhibition / toxicity); details: time (h post infection): 48
Description: as §2

C=CC(=O)N1CC/C(=C\c2ccc(F)c([N+](=O)[O-])c2)C(=O)/C(=C/c2ccc(F)c([N+](=O)[O-])c2)C1 [VLX1570]
Details | % activity on HSV-1 GFP signal, [3] [%] | % change in live cells, [1] [%] | % change in live cells, primary keratinocytes [%] | % change of tdTomato fibroblast signal, [2] [%]
0.041152 µM, model: ALI | 12.8 | – | – | -0.238
0.041152 µM, model: submerged | -7.34 | – | – | 0.174
0.082305 µM, donor: 3 | – | -13 | -11.3 | –
0.082305 µM, donor: 4 | – | 2.33 | -13.3 | –
0.082305 µM, donor: 5 | – | 2 | -6.33 | –
0.123457 µM, model: ALI | -18.6 | – | – | -3.26
0.123457 µM, model: submerged | -4.05 | – | – | -4.91
0.246914 µM, donor: 3 | – | -15.3 | -24 | –
0.246914 µM, donor: 4 | – | 0 | -18 | –
0.246914 µM, donor: 5 | – | 4.67 | -10 | –
0.37037 µM, model: ALI | -96 | – | – | -1.14
0.37037 µM, model: submerged | -5.03 | – | – | -4.63
0.740741 µM, donor: 3 | – | -24 | -37.7 | –
0.740741 µM, donor: 4 | – | -1.33 | -13 | –
0.740741 µM, donor: 5 | – | 4.33 | -11 | –
1.111111 µM, model: ALI | -97.3 | – | – | -12.1
1.111111 µM, model: submerged | -4.45 | – | – | -15
2.22222 µM, donor: 3 | – | -46.7 | -54 | –
2.22222 µM, donor: 4 | – | -3 | -9.33 | –
2.22222 µM, donor: 5 | – | -1.67 | -10.7 | –
3.33333 µM, model: ALI | -103 | – | – | -17.4
3.33333 µM, model: submerged | -17.6 | – | – | -33.6
6.66667 µM, donor: 3 | – | -100 | -58.3 | –
6.66667 µM, donor: 4 | – | -3 | -66 | –
6.66667 µM, donor: 5 | – | -20.7 | -39 | –
10 µM, model: ALI | -101 | – | – | -25.4
10 µM, model: submerged | -55.5 | – | – | -48
20 µM, donor: 3 | – | -101.3 | -85.3 | –
20 µM, donor: 4 | – | -44 | -70 | –
20 µM, donor: 5 | – | -98 | -74.7 | –
60 µM, donor: 3 | – | -98.7 | -95 | –
60 µM, donor: 4 | – | -116 | -99.33 | –
60 µM, donor: 5 | – | -96.7 | -97.67 | –
